From patent US20200385777A1, “METHOD FOR DETERMINING DYSBIOSIS IN THE INTESTINAL MICROBIOME” (EVOLVE BIOSYSTEMS, INC., priority 2018, published 2020)

What was measured:
Assay type in all cases: cell-based
Details in all cases: for MIC: read-out: Minimum inhibitory concentration (MIC)
isolate 7174-4 = experiment: MIC microdilution, fecal isolate 7174-4
Description: (§1) Whole genome sequencing and assembly of bacterial isolates. […] Selected isolates were grown in 20 ml LB broth overnight at 37° C. Cultures were aliquoted into 1 ml aliquots, centrifuged at 10,000×g for 5 min and the supernatant was removed. Cell pellets were resuspended in DNA/RNA Shield solution provided in DNA/RNA Shield Microbe Lysis tubes (Zymo Research, Irvine Calif.) and transferred into lysis tubes. High-molecular weight genomic DNA was extracted using the Quick-DNA Fecal/Soil
(§2) Minimal inhibitory concentrations. […] Carbenicillin was added to growth media for transformed strains at a concentration of 100 μg/ml. The microtiter plates were incubated for 24 h at 37° C. The optical density (OD) of each well was measured at 600 nm using an automated microtiter plate reader (BIO-TEK, Synergy HT). The MIC corresponded to the lowest antibiotic concentration at which no growth was detected. All tests were performed in triplicate

isolate 7084-5 = experiment: MIC microdilution, fecal isolate 7084-5
Description: as §1, §2

isolate 7084-4 = experiment: MIC microdilution, fecal isolate 7084-4
Description: as §1, §2

isolate 7122-2 = experiment: MIC microdilution, fecal isolate 7122-2
Description: as §1, §2

isolate 7174-2 = experiment: MIC microdilution, fecal isolate 7174-2
Description: as §1, §2

isolate 7122-9 = experiment: MIC microdilution, fecal isolate 7122-9
Description: as §1, §2

DH5α = experiment: MIC microdilution, DH5α
Description: as §2

isolate 7084-1 = experiment: MIC microdilution, fecal isolate 7084-1
Description: as §1, §2

isolate 7122-1 = experiment: MIC microdilution, fecal isolate 7122-1
Description: as §1, §2

isolate 7174-5 = experiment: MIC microdilution, fecal isolate 7174-5
Description: as §1, §2

isolate 7005-11 = experiment: MIC microdilution, fecal isolate 7005-11
Description: as §1, §2

isolate 7005-5 = experiment: MIC microdilution, fecal isolate 7005-5
Description: as §1, §2

isolate 7005-13 = experiment: MIC microdilution, fecal isolate 7005-13
Description: as §1, §2

isolate 7005-9 = experiment: MIC microdilution, fecal isolate 7005-9
Description: as §1, §2

Row | Compound | MIC (isolate 7174-4) [mg/L] | MIC (isolate 7084-5) [mg/L] | MIC (isolate 7084-4) [mg/L] | MIC (isolate 7122-2) [mg/L] | MIC (isolate 7174-2) [mg/L] | MIC (isolate 7122-9) [mg/L] | MIC (DH5α) [mg/L] | MIC (isolate 7084-1) [mg/L] | MIC (isolate 7122-1) [mg/L] | MIC (isolate 7174-5) [mg/L] | MIC (isolate 7005-11) [mg/L] | MIC (isolate 7005-5) [mg/L] | MIC (isolate 7005-13) [mg/L] | MIC (isolate 7005-9) [mg/L] | other results
1 | CN(C)[C@@H]1C(O)=C(C(N)=O)C(=O)[C@@]2(O)C(O)=C3C(=O)c4c(O)cccc4[C@@](C)(O)[C@H]3C[C@@H]12 [Tetracycline] | 128 | 16 | 16 | 8 | 64 | 8 | < 4 | 16 | 16 | 64 | – | – | – | – | –
2 | CO/N=C(\C(=O)N[C@@H]1C(=O)N2C(C(=O)[O-])=C(C[N+]3(C)CCCC3)CS[C@H]12)c1csc(N)n1 [Cefepime] | < 4 | < 4 | < 4 | < 4 | < 4 | < 4 | < 4 | < 4 | < 4 | < 4 | 512 | 16 | 512 | 64 | –
3 | CO/N=C(\C(=O)N[C@@H]1C(=O)N2C(C(=O)O)=C(COC(C)=O)CS[C@H]12)c1csc(N)n1 [Cefotaxime] | < 4 | < 4 | < 4 | < 4 | < 4 | < 4 | < 4 | < 4 | < 4 | < 4 | 512 | 32 | 512 | 128 | Resistant/Susceptible according to breakpoints for clinical resistance (isolate 7174-4; isolate 7174-4): (S); Resistant/Susceptible according to breakpoints for clinical resistance (isolate 7084-5; isolate 7084-5): (S); Resistant/Susceptible according to breakpoints for clinical resistance (isolate 7005-11; isolate 7005-11): (R); Resistant/Susceptible according to breakpoints for clinical resistance (isolate 7084-4; isolate 7084-4): (S); Resistant/Susceptible according to breakpoints for clinical resistance (isolate 7122-2; isolate 7122-2): (S); Resistant/Susceptible according to breakpoints for clinical resistance (isolate 7174-2; isolate 7174-2): (S); Resistant/Susceptible according to breakpoints for clinical resistance (isolate 7122-9; isolate 7122-9): (S); Resistant/Susceptible according to breakpoints for clinical resistance (DH5α): (S); Resistant/Susceptible according to breakpoints for clinical resistance (isolate 7084-1; isolate 7084-1): (S); Resistant/Susceptible according to breakpoints for clinical resistance (isolate 7005-5; isolate 7005-5): (R); Resistant/Susceptible according to breakpoints for clinical resistance (isolate 7005-13; isolate 7005-13): (R); Resistant/Susceptible according to breakpoints for clinical resistance (isolate 7005-9; isolate 7005-9): (R); Resistant/Susceptible according to breakpoints for clinical resistance (isolate 7122-1; isolate 7122-1): (S); Resistant/Susceptible according to breakpoints for clinical resistance (isolate 7174-5; isolate 7174-5): (S)
4 | Cc1nnc(SCC2=C(C(=O)O)N3C(=O)[C@@H](NC(=O)Cn4cnnn4)[C@H]3SC2)s1 [Cefazolin] | 512 | 32 | 32 | 8 | 64 | 8 | < 4 | 32 | 8 | 512 | 64 | 64 | 64 | 64 | –
